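Compound exposure: 48 hours, 5 concentrations, 96-well plates. At the GI50, growth is halved. The concentration for full growth arrest is given as TGI.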

One assay concerns CAKI-1 renal. In words: growth of human tumour cells (NCI), 48 h.
`Nc1nccc2c1ccn2-c1ccc(NC(=O)c2ccc(N3CCOCC3)c(C(F)(F)F)c2)cc1`: the GI50 was 0.484 µM and the TGI turned out to be 3.45 µM.
In the case of `Cc1[nH]c2ccccc2c1-c1cc(-c2cc(-c3c(C)[nH]c4ccccc34)on2)no1`, the TGI was > 100 µM.
Regarding `Cn1cnc([N+](=O)[O-])c1S(=O)(=O)Oc1ccccc1`, the GI50 is 1.66 µM and the TGI was 3.41 µM.
As for `COc1cc(C2c3cc4c(cc3C(O)C(CO)C2CO)OCO4)cc(OC)c1OC` (stereo not drawn), the GI50 is 3.09 µM and the TGI is > 46.2 µM.
As to `CCCNC(=S)/N=C/c1c(O)c2ccccc2[nH]c1=O`, the TGI was > 100 µM.
With `COC1C(O)=C2C(=O)O/C(C)=C/C=C/C=C/C=C\CC(c3ccccc3)NC(=O)\C=C/C=C\C=C\C=C\[C@@]2(C)[C@@H]1O` (stereo partly drawn), the TGI turned out to be 0.0582 µM.
Regarding `COC12C=C/C(=C(/C(=O)OCc3ccncc3)C(=O)CCCCCCCCC3(OC)C=C/C(=C(/C(=O)OCc4ccncc4)C(=O)CCCCCCCC1)O3)O2`, the GI50 was 1.12 µM and the TGI was 2.85 µM.
In the case of `NS(=O)(=O)c1ccc(N(/C=C/C(=O)C(F)(F)F)CC(=O)c2ccc(Cl)cc2)cc1`, the GI50 was 24.4 µM and the TGI worked out at 66 µM.
As for `N#C/C=C(\c1ccc([N+](=O)[O-])cc1)n1nnc2cc(Cl)c(Cl)cc21`, the GI50 is 1.37 µM and the TGI stood at 2.91 µM.
Taken in the same sequence, the figures for `CCN(CC)CCOc1ccc(/C=C2\CC3C4CC=C5C[C@@H](O)CC[C@]5(C)C4CC[C@]3(C)C2=O)cc1OC` (stereo partly drawn) were 4.14 µM and 16.3 µM.
With `CC1=CC(=O)[C@@H](O)[C@]2(C)[C@H]3[C@@]4(O)OC[C@]35[C@H]([C@@H](C)[C@H]4O)[C@@H](O)C(=O)O[C@@H]5C[C@@H]12`, the TGI was 5.3 µM.
As to `COc1cc(-c2nn(-c3cccc(NC(=O)Nc4ccc(Cl)c(Cl)c4)c3)cc2-c2ccncc2)ccc1Cl`, the GI50 is 1.12 µM and the TGI came to 3.7 µM.
With `COc1ccc2[nH]cc(-c3nc(-c4c[nH]c5ncccc45)cs3)c2c1`, the GI50 was 2.05 µM and the TGI was > 100 µM.
For `CCOC(=O)C(=Cc1cccc(Cl)c1)C(=O)OCC`, in that order: 2.19 µM and 5.45 µM.

A further assay deals with CCRF-CEM leukemia. In words: growth of human tumour cells (NCI), 48 h.
As to `Nc1nccc2c1ccn2-c1ccc(NC(=O)c2ccc(N3CCOCC3)c(C(F)(F)F)c2)cc1`, the GI50 is 0.452 µM and the TGI was > 100 µM.
With `Cc1[nH]c2ccccc2c1-c1cc(-c2cc(-c3c(C)[nH]c4ccccc34)on2)no1`, the TGI was > 100 µM.
As for `Cn1cnc([N+](=O)[O-])c1S(=O)(=O)Oc1ccccc1`, the GI50 is 3.75 µM and the TGI is > 100 µM.
For the molecule `COc1cc(C2c3cc4c(cc3C(O)C(CO)C2CO)OCO4)cc(OC)c1OC` (stereo not drawn), the GI50 is 0.787 µM and the TGI is > 100 µM.
Regarding `CCCNC(=S)/N=C/c1c(O)c2ccccc2[nH]c1=O`, the TGI was > 100 µM.
Same read-out and setting: the same measure for `COC1C(O)=C2C(=O)O/C(C)=C/C=C/C=C/C=C\CC(c3ccccc3)NC(=O)\C=C/C=C\C=C\C=C\[C@@]2(C)[C@@H]1O` (stereo partly drawn): 0.0577 µM.
In the case of `COC12C=C/C(=C(/C(=O)OCc3ccncc3)C(=O)CCCCCCCCC3(OC)C=C/C(=C(/C(=O)OCc4ccncc4)C(=O)CCCCCCCC1)O3)O2`, the GI50 was 0.0515 µM and the TGI was 2.29 µM.
Consider `CC(C)=CCc1cc(O)cc2c1OC(C=C(C)C)C1=C2C(=O)C2=C(NCCS2(=O)=O)C1=O` (stereo not drawn), for which the GI50 was 4.05 µM and the TGI was > 16.7 µM.
For the molecule `NS(=O)(=O)c1ccc(N(/C=C/C(=O)C(F)(F)F)CC(=O)c2ccc(Cl)cc2)cc1`, the GI50 was 20.4 µM and the TGI was determined as 44.5 µM.
Regarding `C1CSCCSCCS1`, the TGI was > 100 µM.
For `N#C/C=C(\c1ccc([N+](=O)[O-])cc1)n1nnc2cc(Cl)c(Cl)cc21`, the GI50 was 2.31 µM and the TGI came out at 29.4 µM.
As to `CCN(CC)CCOc1ccc(/C=C2\CC3C4CC=C5C[C@@H](O)CC[C@]5(C)C4CC[C@]3(C)C2=O)cc1OC` (stereo partly drawn), the TGI is > 22 µM.
For the molecule `CC1(C)OCCn2c1nc1c(N3CCOCC3)nc(-c3cnc(N)nc3)nc12`, the GI50 is 1.06 µM and the TGI is > 100 µM.
The molecule `CC1=CC(=O)[C@@H](O)[C@]2(C)[C@H]3[C@@]4(O)OC[C@]35[C@H]([C@@H](C)[C@H]4O)[C@@H](O)C(=O)O[C@@H]5C[C@@H]12` displayed a TGI of 1.45 µM.
`COc1ccc2[nH]cc(-c3nc(-c4c[nH]c5ncccc45)cs3)c2c1`: the GI50 was 4.07 µM and the TGI was > 100 µM.
As to `O=c1cc(-c2ccccc2)[nH]c2c(S)cccc12`, the TGI was > 100 µM.

In the next assay the test system is T-47D breast. As to the kind of experiment: growth of human tumour cells (NCI), 48 h.
For `Nc1nccc2c1ccn2-c1ccc(NC(=O)c2ccc(N3CCOCC3)c(C(F)(F)F)c2)cc1`, the GI50 is 2.19 µM and the TGI came to 19.2 µM.
For the molecule `Cc1[nH]c2ccccc2c1-c1cc(-c2cc(-c3c(C)[nH]c4ccccc34)on2)no1`, the TGI is > 100 µM.
As for `Cn1cnc([N+](=O)[O-])c1S(=O)(=O)Oc1ccccc1`, the GI50 is 2.3 µM and the TGI was 7.73 µM.
Consider `COc1cc(C2c3cc4c(cc3C(O)C(CO)C2CO)OCO4)cc(OC)c1OC` (stereo not drawn), for which the TGI was > 100 µM.
For the molecule `CCCNC(=S)/N=C/c1c(O)c2ccccc2[nH]c1=O`, the TGI is > 100 µM.
In turn, `COC1C(O)=C2C(=O)O/C(C)=C/C=C/C=C/C=C\CC(c3ccccc3)NC(=O)\C=C/C=C\C=C\C=C\[C@@]2(C)[C@@H]1O` (stereo partly drawn) had a TGI of 0.158 µM.
As to `COC12C=C/C(=C(/C(=O)OCc3ccncc3)C(=O)CCCCCCCCC3(OC)C=C/C(=C(/C(=O)OCc4ccncc4)C(=O)CCCCCCCC1)O3)O2`, the GI50 is 0.706 µM and the TGI was 21.5 µM.
For `CC(C)=CCc1cc(O)cc2c1OC(C=C(C)C)C1=C2C(=O)C2=C(NCCS2(=O)=O)C1=O` (stereo not drawn), in that order: 3.32 µM and 14.1 µM.
With `NS(=O)(=O)c1ccc(N(/C=C/C(=O)C(F)(F)F)CC(=O)c2ccc(Cl)cc2)cc1`, the GI50 was 63.6 µM and the TGI was > 100 µM.
Consider `C1CSCCSCCS1`, for which the TGI is > 100 µM.
Turning to `CCN(CC)CCOc1ccc(/C=C2\CC3C4CC=C5C[C@@H](O)CC[C@]5(C)C4CC[C@]3(C)C2=O)cc1OC` (stereo partly drawn), the GI50 was 2.79 µM and the TGI is > 100 µM.
Take `CC1(C)OCCn2c1nc1c(N3CCOCC3)nc(-c3cnc(N)nc3)nc12`: the GI50 was 0.0325 µM and the TGI was 0.248 µM.

The values above are taken from PubChem BioAssay (NCI).
